The values below come from ChEMBL document CHEMBL2010737, “Synthesis, modeling and functional activity of substituted styrene-amides as small-molecule CXCR7 agonists” (Eur J Med Chem, 2012).

Activity calls are given as the source filed them. No cut-off for these calls is given here.

Assay [1] addresses T1, Atypical chemokine receptor 3 (Homo sapiens, UniProt P25106). Description: Displacement of [125I]-CXCL12 from human CXCR7 expressed in HEK293 cells after 3 hrs. The assay is classed as cell-based. (In a radioligand displacement assay an active substance lowers the binding of a labelled ligand.)
Assay [2] addresses T1, Atypical chemokine receptor 3. Kind of assay: Agonist activity at human CXCR7 expressed in HEK293T cells co-expressing beta-arrestin2-YFP assessed as beta-arrestin2 recruitment after 1 hr by BRET assay. The assay is classed as functional, cell-based, HEK-293T. As to conditions: for Activity: HEK-293T. A general note: Recruitment of arrestin is a read-out of receptor activation apart from second messengers.

For assay [3] the target is unchanged. Description: Agonist activity at human CXCR7 expressed in HEK293 cells assessed as reduction of receptor surface expression at 10^-5 M after 1 hr by ELISA based internalization assay. The assay is classed as functional, cell-based. Background: ELISA stands for enzyme-linked immunosorbent assay.
Assay [4] shares this target. Description: Agonist activity at human CXCR7 expressed in HEK293 cells assessed as reduction of receptor surface expression after 1 hr by ELISA based internalization assay. The assay is classed as functional, cell-based.

T1 sequence (P25106 whole entry): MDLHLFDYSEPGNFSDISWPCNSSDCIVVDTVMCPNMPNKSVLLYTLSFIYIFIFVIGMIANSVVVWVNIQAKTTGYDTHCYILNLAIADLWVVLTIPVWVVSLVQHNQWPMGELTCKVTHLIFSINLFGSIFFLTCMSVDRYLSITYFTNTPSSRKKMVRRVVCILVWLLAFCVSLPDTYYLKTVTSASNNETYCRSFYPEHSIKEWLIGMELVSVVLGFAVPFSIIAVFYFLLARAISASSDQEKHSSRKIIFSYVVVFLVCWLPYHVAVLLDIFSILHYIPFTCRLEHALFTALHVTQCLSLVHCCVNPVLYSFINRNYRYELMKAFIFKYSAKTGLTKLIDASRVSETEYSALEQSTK

In general, Ki refers to a dissociation constant, usually derived from enzyme kinetics or from competition with a known ligand. Turning to `COc1cc(C(=O)N(CCCN2CCOCC2)C/C(C)=C/c2ccccc2)cc(OC)c1OC`, the inhibition constant (Ki) in assay [1] was 398 nM.
Still for that read-out and setting: the result for `COc1cc(C(=O)N(CCCO)C/C(C)=C/c2ccccc2)cc(OC)c1OC` reads 1580 nM; that for `COc1ccc(/C=C(\C)CN(CCC2CCCN2C)C(=O)c2ccc(OC)c(OC)c2)c(F)c1` (racemic), 1260 nM.
Same read-out and setting: the result for `COc1cc(C(=O)N(CCCN2CCCCC2C)C/C(C)=C/c2ccccc2)cc(OC)c1OC` (racemic) reads 200 nM.
On the same count and under the same terms, next, `COc1cc(C(=O)N(CCC2CCCN2C)C/C(C)=C/c2ccccc2)cc(OC)c1OC` (racemic): 15.8 nM; `COc1cc(C(=O)N(C/C=C(\C)c2ccccc2)CCC2CCCN2C)cc(OC)c1OC` (racemic): 12.6 nM; `COc1cc(C(=O)N(C/C=C/c2ccccc2)CCC2CCCN2C)cc(OC)c1OC` (racemic): 794 nM.
Consider `COc1ccc(C(=O)N(CCC2CCCN2C)C/C(C)=C/c2ccccc2)c(OC)c1` (racemic), for which the affinity in assay [1] corresponds to a Ki of 1260 nM.
Same read-out and setting: the result for `COc1ccc(C(=O)N(CCC2CCCN2C)C/C(C)=C/c2ccccc2)cc1OC` (racemic) reads 25.1 nM; that for `COc1ccc(C(=O)N(CCC2CCCN2C)C/C(C)=C/c2ccccc2)cc1C` (racemic), 794 nM.
As for `C/C(=C\c1ccccc1)CN(CCC1CCCN1C)C(=O)c1ccc2c(c1)OCCO2` (racemic), the Ki in assay [1] is 794 nM.
Regarding `COc1cc(C(=O)N(CCC2CCCN2C)C/C(C)=C/c2ccc(F)cc2F)cc(OC)c1OC` (racemic), the affinity in assay [1] corresponds to a Ki of 31.6 nM.
Compound `COc1ccc(C(=O)N(CCC2CCCN2C)C/C(C)=C/c2ccc(F)cc2F)cc1OC` (racemic) had a Ki in assay [1] of 100 nM.
For the compound `COc1cc(C(=O)N(CCC2CCCN2C)C/C(C)=C/c2ccc(F)cc2)cc(OC)c1OC` (racemic), in assay [1], the Ki was 50.1 nM.
The same measure, in the same setting: next, `COc1ccc(C(=O)N(CCC2CCCN2C)C/C(C)=C/c2ccc(F)cc2)cc1OC` (racemic): 79.4 nM; `COc1cc(C(=O)N(CCC2CCCN2C)C/C(C)=C/c2cccc(F)c2)cc(OC)c1OC` (racemic): 79.4 nM.
In assay [1], `COc1ccc(C(=O)N(CCC2CCCN2C)C/C(C)=C/c2cccc(F)c2)cc1OC` (racemic) showed a Ki of 100 nM.
The EC50 is the concentration giving half of the maximal effect. Take `COc1cc(C(=O)N(CCC2CCCN2C)C/C(C)=C/c2cc(F)cc(C(F)(F)F)c2)cc(OC)c1OC` (racemic): the Ki in assay [1] is 5010 nM. In addition, the EC50 in assay [2] is 1400 nM. In assay [3], the outcome was Active.
In assay [1], `COc1ccc(C(=O)N(CCC2CCCN2C)C/C(C)=C/c2cc(F)cc(C(F)(F)F)c2)cc1OC` (racemic) showed a Ki of 5010 nM.
`COc1cc(C(=O)N(CCC2CCCN2C)C/C(C)=C/c2ccccc2F)cc(OC)c1OC` (racemic) showed a Ki in assay [1] of 7.94 nM. In assay [2], the EC50 is 1.6 nM and the Activity result was “Dose-dependent effect”. Also, in assay [4], the Activity result was “Dose-dependent effect” and the EC50 was found to be 14.1 nM.
Turning to `COc1ccc(C(=O)N(CCC2CCCN2C)C/C(C)=C/c2ccccc2F)cc1OC` (racemic), the Ki in assay [1] was 20 nM. For the same compound, in assay [2], the EC50 turned out to be 1 nM and the Activity entry was “Dose-dependent effect”. For the same compound, in assay [4], the Activity entry was “Dose-dependent effect” and the EC50 was 23.7 nM.
As to `COc1ccc(/C=C(\C)CN(CCC2CCCN2C)C(=O)c2cc(OC)c(OC)c(OC)c2)c(F)c1` (racemic), the Ki in assay [1] is 1260 nM.
Regarding `C/C(=C\c1ccc(F)cc1F)CN(CCC1CCCN1C)C(=O)c1ccc2c(c1)OCCO2` (racemic), the affinity in assay [1], expressed as Ki, was 1580 nM.
On the same count and under the same terms, the result for `C/C(=C\c1ccc(F)cc1F)CN(CCC1CCCN1C)C(=O)c1ccc2c(c1)OCO2` (racemic) reads 3160 nM.
